Data on 30 compounds can be found in patent US11597727B2 (THE REGENTS OF THE UNIVERSITY OF CALIFORNIA, priority 2018, dated 2023).

Molecules are shown by their SMILES. Bounds are passed on as bounds.

Sequence of integrin α2β1 (P17301 30-1181): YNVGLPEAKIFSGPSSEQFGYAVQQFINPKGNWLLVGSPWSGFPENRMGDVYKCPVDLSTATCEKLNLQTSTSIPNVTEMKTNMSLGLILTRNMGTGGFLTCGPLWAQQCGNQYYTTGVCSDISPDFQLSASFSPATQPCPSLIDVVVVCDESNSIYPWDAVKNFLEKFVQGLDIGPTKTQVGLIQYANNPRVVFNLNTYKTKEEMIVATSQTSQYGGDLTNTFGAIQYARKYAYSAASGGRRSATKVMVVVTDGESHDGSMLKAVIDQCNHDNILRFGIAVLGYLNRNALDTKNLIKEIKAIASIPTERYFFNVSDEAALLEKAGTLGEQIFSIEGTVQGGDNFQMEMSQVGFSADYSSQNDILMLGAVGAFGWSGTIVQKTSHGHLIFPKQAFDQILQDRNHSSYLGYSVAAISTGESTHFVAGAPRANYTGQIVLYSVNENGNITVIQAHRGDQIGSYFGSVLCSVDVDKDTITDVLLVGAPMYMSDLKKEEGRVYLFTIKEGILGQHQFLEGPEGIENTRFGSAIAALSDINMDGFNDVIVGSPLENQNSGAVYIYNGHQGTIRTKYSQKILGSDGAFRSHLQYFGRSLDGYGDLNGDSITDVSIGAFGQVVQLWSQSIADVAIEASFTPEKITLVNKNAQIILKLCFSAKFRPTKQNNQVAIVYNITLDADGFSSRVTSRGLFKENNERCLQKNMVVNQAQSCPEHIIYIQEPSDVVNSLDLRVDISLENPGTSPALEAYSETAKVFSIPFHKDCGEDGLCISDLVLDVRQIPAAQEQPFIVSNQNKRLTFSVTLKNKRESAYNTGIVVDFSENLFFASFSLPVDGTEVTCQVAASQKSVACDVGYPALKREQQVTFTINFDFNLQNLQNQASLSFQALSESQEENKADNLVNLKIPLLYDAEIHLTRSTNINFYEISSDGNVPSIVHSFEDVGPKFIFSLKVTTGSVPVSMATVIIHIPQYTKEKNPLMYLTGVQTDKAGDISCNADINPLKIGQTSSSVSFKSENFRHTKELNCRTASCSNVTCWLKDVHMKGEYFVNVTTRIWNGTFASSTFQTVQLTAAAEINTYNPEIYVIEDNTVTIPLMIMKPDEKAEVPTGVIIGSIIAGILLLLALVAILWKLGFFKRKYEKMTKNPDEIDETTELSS
Sequence of integrin α2β1 (P05556 21-798): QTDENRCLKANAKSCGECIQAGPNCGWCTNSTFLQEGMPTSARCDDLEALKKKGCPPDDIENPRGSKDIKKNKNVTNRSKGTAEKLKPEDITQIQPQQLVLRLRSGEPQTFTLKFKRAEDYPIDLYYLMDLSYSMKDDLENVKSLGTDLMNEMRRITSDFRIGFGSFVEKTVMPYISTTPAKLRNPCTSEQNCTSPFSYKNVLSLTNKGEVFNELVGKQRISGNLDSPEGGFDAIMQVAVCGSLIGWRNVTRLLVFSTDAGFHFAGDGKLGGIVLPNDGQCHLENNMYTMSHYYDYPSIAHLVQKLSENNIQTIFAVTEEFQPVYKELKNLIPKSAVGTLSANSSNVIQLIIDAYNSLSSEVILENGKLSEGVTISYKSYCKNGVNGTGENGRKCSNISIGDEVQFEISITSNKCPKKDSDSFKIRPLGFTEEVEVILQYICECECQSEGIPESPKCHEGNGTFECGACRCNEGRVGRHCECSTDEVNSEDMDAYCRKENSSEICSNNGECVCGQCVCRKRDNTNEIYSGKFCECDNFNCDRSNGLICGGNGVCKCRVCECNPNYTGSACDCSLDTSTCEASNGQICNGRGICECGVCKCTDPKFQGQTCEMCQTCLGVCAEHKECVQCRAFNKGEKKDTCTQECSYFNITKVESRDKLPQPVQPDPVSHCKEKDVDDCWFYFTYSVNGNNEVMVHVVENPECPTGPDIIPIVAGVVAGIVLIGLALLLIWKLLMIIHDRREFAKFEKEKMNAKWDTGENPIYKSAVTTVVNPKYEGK

The target in the assay is integrin α2β1 (Homo sapiens, UniProt P05556+P17301). In words: HT 1080 cell adhesion assay on rat tail collagen I. Type of assay: cell-based. Details: HT1080 (human fibrosarcoma) cells (or human airway smooth muscle cells) were detached and resuspended in serum-free DMEM; endogenous in cells; host or cells: HT1080 human fibrosarcoma cells. As to conditions: HT1080 (human fibrosarcoma) cells on rat tail collagen I, absorbance at 595 nm, triplicate; read-out: IC50s from HT 1080 Cell adhesion assay. How it is done:
Cell adhesion Assay: Ninety-six-well flat-bottomed tissue culture plates were coated with rat tail collagen I for 1 hour at 37° C. After incubation, wells were blocked with 1% BSA at 37° C. for 1 hour. Control wells were filled with 1% BSA. HT1080 (human fibrosarcoma) cells (or human airway smooth muscle cells) were detached and resuspended in serum-free DMEM. Cells were incubated with anti-integrin alpha2 antibody control or 10-fold dilutions of each compound with a starting concentration of 10 uM for 15 minutes at 4° C. before plating. The plates were centrifuged at 10 g for 5 minutes before incubation for 1 hour at 37° C. in humidified 5% CO2. Nonadherent cells were removed by centrifugation (top side down) at 10 g for 5 minutes. Attached cells were stained with 0.5% crystal violet, and the wells were washed with PBS. The relative number of cells in each well was evaluated after solubilization in 40 μl of 2% Triton X-100 by measuring absorbance at 595 nm in a microplate reader. All determinations were carried out in triplicate.
Consider `O=C(NC[C@H](NC(=O)c1c(Cl)cccc1Cl)C(=O)O)NCC12CC3CC(CC(C3)C1)C2` [A2-83], for which the IC50 lay within 10 to 100 µM.
Under `Cc1cc(C)c(C(=O)N[C@@H](CNC(=O)NCc2ccccc2)C(=O)O)c(C)c1` [A2-26, (S)-3-(3-benzylureido)-2-(2,4,6-trimethylbenzamido)propanoic acid] stands 10 to 100 µM.
As to `O=C(NCc1ccc(Br)cc1)NC[C@H](NC(=O)c1c(Cl)cccc1Cl)C(=O)O` [KZ-1-23, (S)-3-(3-(4-bromobenzyl)ureido)-2-(2,6-dichlorobenzamido)propanoic acid], the IC50 lay in the range of 10 to 100 µM.
Under `O=C(NCc1ccccc1Cl)NC[C@H](NC(=O)c1c(Cl)cccc1Cl)C(=O)O` [KZ-1-18, (S)-3-(3-(2-chlorobenzyl)ureido)-2-(2,6-dichlorobenzamido)propanoic acid] stands 10 to 100 µM; under `O=C(NC[C@H](NC(=O)c1c(Cl)cccc1Cl)C(=O)O)N[C@@H]1CCCc2ccccc21` [A2-124, (2S)-2-(2,6-dichlorobenzamido)-3-(3-(1,2,3,4-tetrahydronaphthalen-1-yl)ureido)propanoic acid], less than 10 µM; under `O=C(NCC1CC2(CCC2)C1)NC[C@H](NC(=O)c1c(Cl)cccc1Cl)C(=O)O` [A2-178, (S)-2-(2,6-dichlorobenzamido)-3-(3-(spiro[3.3]heptan-2-ylmethyl)ureido)propanoic acid], 10 to 100 µM.
Under `O=C(NC[C@H](NC(=O)c1c(Cl)cccc1Cl)C(=O)O)NC(c1ccccc1)c1ccccc1` [A2-127, (S)-3-(3-benzhydrylureido)-2-(2,6-dichlorobenzamido)propanoic acid] stands 10 to 100 µM; under `O=C(NCc1c(F)cccc1F)NC[C@H](NC(=O)c1c(Cl)cccc1Cl)C(=O)O` [KZ-1-33, (S)-2-(2,6-dichlorobenzamido)-3-(3-(2,6-difluorobenzyl)ureido)propanoic acid], more than 100 µM.
For `O=C(NCC1CC12CCCCC2)NC[C@H](NC(=O)c1c(Cl)cccc1Cl)C(=O)O` (stereo partly drawn) [A2-177, (2S)-2-(2,6-dichlorobenzamido)-3-(3-(spiro[2.51]octan-1-ylmethyl)ureido)propanoic acid] the value was 10 to 100 µM.
As for `O=C(NCC1CCc2ccccc21)NC[C@H](NC(=O)c1c(Cl)cccc1Cl)C(=O)O` (stereo partly drawn) [A2-123], the IC50 was less than 10 µM.
Turning to `CC12CC3CC(C)(C1)CC(NC(=O)NC[C@H](NC(=O)c1c(Cl)cccc1Cl)C(=O)O)(C3)C2` [A2-128, (S)-2-(2,6-dichlorobenzamido)-3-(3-(3,5-dimethyladamantan-1-yl)ureido)propanoic acid], the IC50 lay in the range of 10 to 100 µM.
`CC(NC(=O)NC[C@H](NC(=O)c1c(Cl)cccc1Cl)C(=O)O)C12CC3CC(CC(C3)C1)C2` (stereo partly drawn) [A2-132, (2S)-3-(3-(1-(adamantan-1-yl)ethyl)ureido)-2-(2,6-dichlorobenzamido)propanoic acid]: the IC50 lay within 10 to 100 µM.
With `O=C(NCc1ccccc1)NC[C@H](NC(=O)c1c(C(F)(F)F)cccc1C(F)(F)F)C(=O)O` [A2-27, (S)-3-(3-benzylureido)-2-(2,6-bis(trifluoromethyl)benzamido)propanoic acid], the IC50 lay in the range of 10 to 100 µM.
For `O=C(NCc1cc(F)cc(F)c1)NC[C@H](NC(=O)c1c(Cl)cccc1Cl)C(=O)O` [KZ-1-32, (S)-2-(2,6-dichlorobenzamido)-3-(3-(3,5-difluorobenzyl)ureido)propanoic acid] the value was more than 100 µM; for `CC12CC3CC(C1)CC(NC(=O)NC[C@H](NC(=O)c1c(Cl)cccc1Cl)C(=O)O)(C3)C2` [A2-157, (S)-2-(2,6-dichlorobenzamido)-3-(3-(3-methyladamantan-1-yl)ureido)propanoic acid], 10 to 100 µM; for `CC(C)(C)CNC(=O)NC[C@H](NC(=O)c1c(Cl)cccc1Cl)C(=O)O` [KZ-1-40, (S)-2-(2,6-dichlorobenzamido)-3-(3-neopentylureido)propanoic acid], more than 100 µM.
For `Cc1cccc(Cl)c1C(=O)N[C@@H](CNC(=O)NCc1ccccc1)C(=O)O` [A2-35, (S)-3-(3-benzylureido)-2-(2-chloro-6-methylbenzamido)propanoic acid] the value was 10 to 100 µM; for `O=C(NCc1ccc(C(F)(F)F)cc1)NC[C@H](NC(=O)c1c(Cl)cccc1Cl)C(=O)O` [KZ-1-30, (S)-2-(2,6-dichlorobenzamido)-3-(3-(4-(trifluoromethyl)benzyl)ureido)propanoic acid], more than 100 µM.
`O=C(N[C@@H](CNC(=S)NCc1ccccc1)C(=O)O)c1c(Cl)cccc1Cl` [KZ-1-21, (S)-3-(3-benzylthioureido)-2-(2,6-dichlorobenzamido)propanoic acid]: the IC50 lay in the range of 10 to 100 µM.
Under `O=C(NCc1ccc(Cl)cc1)NC[C@H](NC(=O)c1c(Cl)cccc1Cl)C(=O)O` [KZ-1-26, (S)-3-(3-(4-chlorobenzyl)ureido)-2-(2,6-dichlorobenzamido)propanoic acid] stands more than 100 µM; under `O=C(NC[C@H](NC(=O)c1c(Cl)cccc1Cl)C(=O)O)NC12CC3CC(C1)CC(C(=O)O)(C3)C2` [A2-143, 3-(3-((S)-2-carboxy-2-(2,6-dichlorobenzamido)ethyl)ureido)adamantane-1-carboxylic acid], 10 to 100 µM.
`O=C(NC[C@H](NC(=O)c1c(Cl)cccc1Cl)C(=O)O)NC12CC3CC(CC(C3)C1)C2` [A2-87]: the IC50 lay in the range of 10 to 100 µM.
For `Nc1ccc(CNC(=O)NC[C@H](NC(=O)c2c(Cl)cccc2Cl)C(=O)O)cc1` [KZ-1-37, (S)-3-(3-(4-aminobenzyl)ureido)-2-(2,6-dichlorobenzamido)propanoic acid] the value was more than 100 µM.
For `O=C(NCC1CC2CCC1C2)NC[C@H](NC(=O)c1c(Cl)cccc1Cl)C(=O)O` (stereo partly drawn) [A2-174, (2S)-3-(3-(bicyclo[2.2.1]heptan-2-ylmethyl)ureido)-2-(2,6-dichlorobenzamido)propanoic acid] the value was 10 to 100 µM; for `O=C(NCc1ccccc1)NC[C@H](NC(=O)C1CCCCC1)C(=O)O` [A2-63, (S)-3-(3-benzylureido)-2-(cyclohexanecarboxamido)propanoic acid], more than 100 µM; for `CCC12CC3CC(C1)CC(NC(=O)NC[C@H](NC(=O)c1c(Cl)cccc1Cl)C(=O)O)(C3)C2` [A2-129, (S)-2-(2,6-dichlorobenzamido)-3-(3-(3-ethyladamantan-1-yl)ureido)propanoic acid], 10 to 100 µM.
Under `O=C(N[C@@H](CNc1nccc(-c2ccccc2)n1)C(=O)O)c1c(Cl)cccc1Cl` [A2-73, (S)-2-(2,6-dichlorobenzamido)-3-((4-phenylpyrimidin-2-yl)amino)propanoic acid] stands more than 100 µM.
Regarding `CCN(CC)C(=O)NC[C@H](NC(=O)c1c(Cl)cccc1Cl)C(=O)O` [A2-71, (S)-2-(2,6-dichlorobenzamido)-3-(3,3-diethylureido)propanoic acid], the IC50 is more than 100 µM.
For `O=C(NCc1cccs1)NC[C@H](NC(=O)c1c(Cl)cccc1Cl)C(=O)O` [KZ-1-34, (S)-2-(2,6-dichlorobenzamido)-3-(3-(thiophen-2-ylmethyl)ureido)propanoic acid], the IC50 was 10 to 100 µM.
Under `O=C(NC[C@H](NC(=O)c1c(Cl)cccc1Cl)C(=O)O)N[C@H]1CCc2ccccc21` [A2-86, (S)-2-(2,6-dichlorobenzamido)-3-(3-((S)-2,3-dihydro-1H-inden-1-yl)ureido)propanoic acid] stands 10 to 100 µM.
